Results on 1 compound are retold here after publication PMC12655426 (Pharmaceutics, 2025).

Some results are limits rather than exact numbers.

The target in one data set is T1, OAT4 (Homo sapiens, UniProt Q9NSA0).
T1 sequence (Q9NSA0 1-550): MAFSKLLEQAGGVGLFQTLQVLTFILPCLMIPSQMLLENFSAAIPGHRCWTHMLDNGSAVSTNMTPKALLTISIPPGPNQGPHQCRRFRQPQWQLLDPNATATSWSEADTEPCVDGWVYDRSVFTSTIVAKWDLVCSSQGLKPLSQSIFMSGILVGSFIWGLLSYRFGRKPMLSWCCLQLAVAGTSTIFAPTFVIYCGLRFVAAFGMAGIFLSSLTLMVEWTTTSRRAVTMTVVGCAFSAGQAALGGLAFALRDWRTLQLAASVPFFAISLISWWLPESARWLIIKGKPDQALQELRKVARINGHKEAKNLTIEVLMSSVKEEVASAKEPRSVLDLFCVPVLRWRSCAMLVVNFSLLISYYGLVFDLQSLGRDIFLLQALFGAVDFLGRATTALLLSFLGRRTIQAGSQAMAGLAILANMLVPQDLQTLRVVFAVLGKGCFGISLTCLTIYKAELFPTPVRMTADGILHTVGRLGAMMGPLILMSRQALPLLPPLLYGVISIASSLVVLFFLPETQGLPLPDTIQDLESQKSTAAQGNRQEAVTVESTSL
Briefly: OTA uptake in OAT4-overexpressing HEK293 cells (screen and kinetics). How it is done: The following experiments were conducted at the University of Washington. Mock HEK293 cells and transporter-overexpressing HEK293 cells (i.e., OAT1–4, OCT2, MATE1/2K, OCTN1, OATP1A2), mock CHO cells, and OCTN2-overexpressing CHO cells were plated in 96 well plates coated with 0.05 mg/mL of poly-D-lysine in 50 μL DPBS at a density of 800,000 cells/mL and grown until reaching over 90% of confluence. […] For uptake experiments in MATE1- and MATE2-K-expressing HEK293 cells, the pH of the incubation buffer was adjusted to 8.0 to facilitate substrate uptake. For uptake experiments in OATP1A2-expressing and OAT4-expressing HEK293 cells, the pH of the incubation buffer was adjusted to 6.5 to mimic pH of the urinary filtrate, as these are apical transporters. The incubation buffer was kept at pH 7.4 for all other transporters. […] Uptake was quenched by removing the substrates/inhibitors and washing the cells 3 times with 200 μL of ice-cold HBSS++. […] The precipitated protein was allowed to dry and subsequently solubilized overnight in 1M NaOH, neutralized with 1 M HCl the next day, and measured by BCA assay.
All cellular-based assays were conducted in technical triplicate across three independent experiments. […] This cutoff was defined a priori. […] Jnet was then treated as the initial uptake rate, and Km and Vmax values were obtained by fitting the Michaelis–Menten equation to the substrate-concentration data as described above. Intrinsic clearance (CLint) was then calculated by the formula, CLint=Vmax/Km using Vmax and Km values as calculated above. […] At steady-state, the mass balance for intracellular concentrations assuming symmetric passive permeabilities (Papical = Pbasal, taken as Papp from mock assays) and apical efflux gives: Ccell= Cbasal/1+ ke/Pa where Cbasal is the concentration in the basal chamber and ke is the first-order elimination with respect to BCRP. Because the asymmetric efflux ratio ERa is defined as: ERa=1+ ke/Pa

The conditions of data set [1]: 0.5 mg/kg oral, rats, cited from earlier work.
The next data set has as its target T2, human MRP2 (Homo sapiens, UniProt Q92887).
T2 construct: purchased BioIVT; host or cells: Sf9 cell-derived membrane vesicles
Briefly: OTA uptake in MRP2-expressing Sf9 membrane vesicles. Type of data set: in vitro ADME. Conditions: 10 μM OTA, 5 min. How it is done: The following experiments were conducted at BioIVT.

The conditions of data set [2]: single fasted volunteer, microdose of radioactive OTA in ethanol, within 8 h, not absolute bioavailability; cited from earlier work.
The subject of data set [3] is human serum albumin (HSA). Conditions: no reference given; cited from earlier work.
For a further data set, the system named is MRP2. Conditions: read-out: IC50, inhibition of MRP2-mediated p-aminohippurate efflux; cited from earlier work.
Setting [4] is: HEK293, 5 min, 37 °C, pH 6.5, mock-corrected.

T2 sequence (Q92887 whole entry): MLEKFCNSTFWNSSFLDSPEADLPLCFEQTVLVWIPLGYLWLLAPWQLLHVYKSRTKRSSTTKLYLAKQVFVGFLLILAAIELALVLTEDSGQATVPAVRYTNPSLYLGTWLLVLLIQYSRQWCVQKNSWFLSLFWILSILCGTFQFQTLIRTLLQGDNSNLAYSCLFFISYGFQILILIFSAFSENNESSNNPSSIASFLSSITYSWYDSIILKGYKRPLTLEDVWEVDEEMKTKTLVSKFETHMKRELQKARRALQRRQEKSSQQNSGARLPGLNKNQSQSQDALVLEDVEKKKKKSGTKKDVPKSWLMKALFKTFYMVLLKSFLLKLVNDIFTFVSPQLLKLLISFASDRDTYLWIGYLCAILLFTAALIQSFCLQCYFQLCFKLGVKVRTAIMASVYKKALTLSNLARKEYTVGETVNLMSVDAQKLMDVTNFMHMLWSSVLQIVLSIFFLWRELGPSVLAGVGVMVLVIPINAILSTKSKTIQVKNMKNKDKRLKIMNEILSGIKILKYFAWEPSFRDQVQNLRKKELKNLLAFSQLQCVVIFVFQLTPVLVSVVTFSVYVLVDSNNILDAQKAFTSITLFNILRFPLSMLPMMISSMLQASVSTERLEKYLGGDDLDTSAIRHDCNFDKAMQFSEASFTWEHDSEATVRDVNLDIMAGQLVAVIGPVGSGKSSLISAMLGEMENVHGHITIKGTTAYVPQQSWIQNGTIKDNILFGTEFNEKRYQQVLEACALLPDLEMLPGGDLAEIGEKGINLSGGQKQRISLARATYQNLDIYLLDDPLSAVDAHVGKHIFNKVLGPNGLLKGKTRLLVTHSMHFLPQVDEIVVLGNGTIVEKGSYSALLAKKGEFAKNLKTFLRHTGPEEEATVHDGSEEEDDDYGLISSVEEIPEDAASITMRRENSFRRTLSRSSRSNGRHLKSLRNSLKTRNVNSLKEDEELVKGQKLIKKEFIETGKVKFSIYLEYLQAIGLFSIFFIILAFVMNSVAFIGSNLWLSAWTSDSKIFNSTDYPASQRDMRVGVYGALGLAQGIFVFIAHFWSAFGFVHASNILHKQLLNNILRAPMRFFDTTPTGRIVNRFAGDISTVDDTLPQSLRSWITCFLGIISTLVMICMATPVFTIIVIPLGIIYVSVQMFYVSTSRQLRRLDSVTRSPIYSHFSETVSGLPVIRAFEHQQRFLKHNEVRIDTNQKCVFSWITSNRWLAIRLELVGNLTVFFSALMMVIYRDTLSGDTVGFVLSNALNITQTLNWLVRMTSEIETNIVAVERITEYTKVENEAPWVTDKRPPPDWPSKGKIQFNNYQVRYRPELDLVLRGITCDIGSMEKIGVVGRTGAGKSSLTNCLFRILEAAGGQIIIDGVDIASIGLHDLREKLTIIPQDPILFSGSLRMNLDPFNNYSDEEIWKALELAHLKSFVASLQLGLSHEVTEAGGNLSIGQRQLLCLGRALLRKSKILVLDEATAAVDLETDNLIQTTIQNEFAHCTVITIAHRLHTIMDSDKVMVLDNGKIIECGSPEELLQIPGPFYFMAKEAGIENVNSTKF

As a reminder, the Km is the substrate concentration at which the rate is half of its maximum. By Vmax is commonly meant the top rate of the reaction or transport when substrate is in excess. Usually IC50 stands for the midpoint of a concentration-inhibition curve. As for `C[C@@H]1Cc2c(Cl)cc(C(=O)N[C@@H](Cc3ccccc3)C(=O)O)c(O)c2C(=O)O1` [OTA, Ochratoxin A], on OAT4 (setting [4]), the Km came to 6.38 ± 1.45 µM and the Vmax is listed as 96.9 ± 18.8 pmol/mg/min. Further, the microsomal CLint on OAT4 (human, other cell line, pH 6.5) was 15.3 ± 0.8 µL/min/mg. Also, in data set [1] (after 24 h), the “OTA accumulated in kidney tissue” value was “over 400 pmol/g”. In data set [1] (after 96 h), the “dose recovered in urine and feces” value is recorded as 15%. On human MRP2, the “MRP2-mediated OTA transport” value is recorded as “no MRP2-mediated OTA transport”. In addition, the “percentage of administered radioactivity detected in plasma” value in data set [2] is ~ 93%. In addition, the “bound to human serum albumin” value in data set [3] is listed as more than 99%. In addition, the IC50 in the data set with MRP2 was 58 µM.
